Laboratory results: patent publication US12473249B2, “Aromatic compounds and pharmaceutical uses thereof” (BASF AS, priority 2018, dated 2025)
Marks after values point to notes of the source that are not given here.

What was measured:
Format in all cases: in vivo, mouse
[1] = system: hepatic expression of key genes; assay: Hepatic target gene expression via RNA sequencing in ob/ob AMLN mice; conditions: 0.3 mmol/kg bw day, 4 weeks treatment
Protocol: (§1) ob/ob mice are consistently fibrosis (liver) prone when cholesterol (2%) and 40% fat (containing 18% trans-fatty acids) and 20% fructose are added to a high-caloric diet (i.e., AMLN diet). ob/ob mice on AMLN diet (termed ‘ob/ob AMLN mice’) develop steatohepatitis and fibrosis within a shorter timeframe (<12 weeks) compared with wild-type C57BL/6 mice (AMLN mice) fed the same diet. ob/ob AMLN mice provide an obese diet-induced model of NASH that also allows the study of effects on glycemic control.
(§2) Thirty male ob/ob mice (5 weeks old) were fed the AMLN diet for 15 weeks then randomised into 3 groups of 10 mice/group to receive Compound B or Compound A (both at 0.3 mmol/kg bw day) or no treatment (vehicle) for a further 4 weeks. Assessment of the hepatic expression of key genes regulating plasma lipid concentrations (LDLr), hepatic fibrosis (collA1), bile acid transport/re-uptake (Slc51b and Slc10a2) and inflammation (CD68) was made via RNA sequencing at 4 weeks. To assess the effects of Compound B and Compound A on glycemic control, an oral glucose tolerance test (OGTT) was also performed at 3 weeks. An additional group of mice (n=5) were also treated with a PPAR-γ agonist (pioglitazone, 30 mg/kg bw day) was also included to compare effects upon bodyweight.

APOE*3Leiden mice = assay: Plasma lipids in high-fat diet fed APOE*3Leiden mice; conditions: for triglyceride levels over 4 weeks: further study with reference compounds, 0.3 mmol/kg bw/day, FIG. 31
Protocol: The APOE*3Leiden mouse expresses a variant of the human apolipoprotein E3 (APOE3), the APOE*3Leiden, in addition to the human apolipoprotein C1 (APOC1).
Studies were performed in APOE*3Leiden mice (13-15 weeks old) placed on a semi-synthetic high fat diet (24% fat w/w) with 0.25% cholesterol w/w. After a 4-week run-in period, mice were sub-divided into groups of 5 mice each and administration of Compound A, Compound B, or vehicle alone was started. Both Compound B and Compound A were administered at a dose of 0.3 mmol/kg bw/day via diet. Sunflower oil (10 ml v/w) was used as a vehicle to facilitate mixing. After 4 weeks of treatment mice were sacrificed by C02 asphyxiation and plasma cholesterol and triglycerides were measured using commercially available kits (Roche*/Hitachi©).
In a further study, performed as described above, the effects of Compound A, Compound B, and Compound C were compared with the effects of Reference Compound 1 ((Z)-3-(pent-2-en-1-yloxy)benzoic acid) and Reference Compound 2 ((Z)-4-(pent-2-en-1-yloxy)benzoic acid) on triglyceride levels. […] The results of this study are described in Example 17.

ob/ob AMLN mice = assay: Glycemic control (oral glucose tolerance test, fasting glucose and insulin) in ob/ob AMLN mice; conditions: 0.3 mmol/kg bw day
Protocol: as §1
as §2, with “To assess the effects of Compound B and Compound A on glycemic control, an oral glucose tolerance test (OGTT) was also performed at 3 weeks.” left out

[2] = Relative bodyweight in ob/ob AMLN mice; conditions: 0.3 mmol/kg bw day, 4 weeks treatment, FIG. 11
Protocol: as §1, §2

C57BL/6 mice = assay: Hepatic steatosis and organ mass in oral PN diet fed C57BL/6 mice, subsequent experiment at two dosages (H&E); conditions: 19 days
From the text: Male C57BL/6 mice, 6 to 8 weeks old at initiation of the experiments, were used for all experimental groups. Mice were fed either an ad libitum diet of standard rodent chow (calorie composition: 26% protein, 14% fat, 60% carbohydrates) and water or a parenteral nutrition (PN) solution that mimics the PN diet used in neonatal intensive care units. The PN solution was a fat-free, high-carbohydrate liquid diet (20% dextrose, 2% essential and nonessential amino acids, 0.2% pediatric trace elements, 0.5% pediatric multivitamins, 30 mEq of sodium, 20 mEq of potassium, 15 mEq of calcium (as calcium gluconate), 10 mEq of magnesium, 10 mEq of phosphate, 5 mEq of acetate, and 30 mEq of chloride per liter) administered as a single 50 mL bottle per cage which mice consumed ad libitum. […] Prince et al., JPEN J Parenter Enteral Nutr., 2014; 38(5): 608-616.
In a subsequent experiment, both Compound A and Compound B were tested at two dosages. The results of this experiment are described in Example 15.
Male C57BL/6 mice, 6 to 8 weeks old at initiation of the experiments, were used for all experimental groups. One group was fed an ad libitum diet of standard rodent chow and water. The group fed standard rodent chow received no additional treatments during the experimental period and served as a negative control group. Seven other groups (10 mice per group) were fed the PN solution described above ad libitum.
Of the seven groups that received the PN diet, each group received one of the following orogastric protocols administered every other day over 19 days: • (1) Saline: saline solution administered isovolumetric with the Omegaven® group; • (2) MCT: medium-chain triglyceride oil (MCT) (Nestle™ HealthCare Nutrition, Florham Park, NJ), at a dose of 7.4 g of fat/kg body weight; • (3) Omegaven®: Omegaven® (commercial fish oil lipid emulsion) at a dose of 2.4 g fat/kg body weight; • (4) Compound A LOW: Compound A at a dose of 0.3 mmol/kg bw day (diluted in MCT to 0.0375 mmol/mL, resulting in administration of 7.4 g of MCT/kg weight); • (5) Compound A HI: Compound A at a dose of 0.6 mmol/kg bw day (diluted in MCT to 0.075 mmol/mL, resulting in administration of 7.4 g of MCT/kg weight); • (6) Compound B LOW: Compound B at a dose of 0.3 mmol/kg bw day (diluted in MCT to 0.0375 mmol/mL, resulting in administration of 7.4 g of MCT/kg weight); and • (7) Compound B HI: Compound B at a dose of 0.6 mmol/kg bw day (diluted in MCT to 0.075 mmol/mL, resulting in administration of 7.4 g of MCT/kg weight).
After 19 days of treatment, organs were harvested, including the liver, kidney, and spleen, which were analyzed for relative weight between each group. Livers were also fixed and frozen on dry ice, then stored at −80° C. for hematoxylin and eosin (H&E) stain analysis and Oil Red O analysis.

[3] = high-fat high-cholesterol diet, 4 weeks treatment
[4] = high-fat high-cholesterol diet, 4 weeks treatment, dose 0.1 mmol/kg bw/day
[5] = high-fat high-cholesterol diet, 4 weeks treatment, dose 0.3 mmol/kg bw/day
[6] = oral PN diet, high and low dosages, FIG. 18

body mass vs chow-fed or PN-fed saline groups (C57BL/6 mice; [6])	liver/body mass vs chow-fed or PN-fed saline groups (C57BL/6 mice; [6])	spleen/body mass vs chow-fed or PN-fed saline groups (C57BL/6 mice; [6])	Structure (SMILES)	hepatic expression of Coll al (collagen1a1) versus vehicle ([1]; FIG. 5)	expression of hepatic LDLr versus vehicle ([1]; FIG. 12)	plasma TG versus vehicle (APOE*3Leiden mice; [3])	total plasma cholesterol versus vehicle (APOE*3Leiden mice; [3])	Reduction in plasma TG vs control (%) (APOE*3Leiden mice; [4])	Reduction in plasma cholesterol vs control (%) (APOE*3Leiden mice; [4])	Reduction in plasma TG vs control (%) (APOE*3Leiden mice; [5])	Reduction in plasma cholesterol vs control (%) (APOE*3Leiden mice; [5])	total plasma glucose (area-under-the-curve from 0-240 mins) versus vehicle in response to an oral glucose load (ob/ob AMLN mice; after 3 weeks treatment, FIG. 1)	plasma glucose at 30- and 60-mins versus vehicle in response to an oral glucose load (ob/ob AMLN mice; after 3 weeks treatment, FIG. 2)	fasting plasma insulin versus vehicle (ob/ob AMLN mice; after 4 weeks treatment, FIG. 3)	fasting plasma glucose versus vehicle (ob/ob AMLN mice; after 4 weeks treatment, FIG. 4)	relative bodyweight versus vehicle [2]	development of steatosis induced by an oral PN diet (H&E stain in isolated liver sections) (C57BL/6 mice; 0.3 and 0.6 mmol/kg bw day in MCT by orogastric gavage, FIGS. 14-17)	triglyceride levels over 4 weeks (APOE*3Leiden mice)
not significantly different	not significantly different	not significantly different	CC/C=C\COc1cccc(C(=O)O)c1C [Compound B, (Z)-2-methyl-3-(pent-2-en-1-yloxy)benzoic acid]	significantly reduce	significantly increase	significantly reduce	significantly reduce	45** %	24** %	63** %	27** %	significantly reduce	significantly reduce	reduce	significantly reduce	no effect	prevented the development of steatosis	
			CC/C=C\COc1cccc(C(=O)O)c1 [Reference Compound 1, (Z)-3-(pent-2-en-1-yloxy)benzoic acid, reference compound]															did affect
			CC/C=C\COc1ccc(C(=O)O)cc1 [Reference Compound 2, (Z)-4-(pent-2-en-1-yloxy)benzoic acid, reference compound]															did affect
